Reference: patent US20230355542A1, “DRUG-ELUTING DEVICE WITH GENETIC AND CHEMICAL THERAPEUTICS FOR TREATING OR PREVENTING VASCULAR ACCESS DYSFUNCTIONS” (priority 2022, published 2023)

System: neointima formation in the venous arms of AV fistulae
Assay: systemic E2 in AV fistula model with experimentally induced chronic kidney disease
Format: in vivo
Conditions: systemic E2 100 ug/day, i.p; animals with experimentally induced CKD
Protocol: Systemic administration of estradiol, i.e., E2 (Molecular Weight: 272.38 Formula: […] Dissolves in absolute Ethanol) requires weekly therapeutic injections ([Study 1:10 weeks old+OVX (ovariectomy)+1 week+NX (nephrectomy)+4 weeks+AVF+4 weeks (with systemic E2 [100 ug/day, i.p])+4 weeks]) that are not applicable in real-life clinical settings. […] The nanoparticle membrane disclosed herein may locally deliver nanoparticles for the carotid artery ligation model and potentially for the AV Fistula injury site, replacing weekly injections, without the requirement for elevated systemic levels of E2. Nanoparticles may be successfully delivered and retained in layers of carotid artery tissue on a mouse model with significant enhancement.

C[C@]12CC[C@@H]3c4ccc(O)cc4CC[C@H]3[C@@H]1CC[C@@H]2O [estrogen, estradiol]
effect on neointima formation: inhibits neointima formation
